Measurements published in patent US12139472B2, “Inhibitors of advanced glycation end products” (priority 2019, dated 2024).

Assay: Pharmacokinetic study for PTG-630 (IV and PO): plasma, whole blood, tissues, urine
Type: in vivo, Sprague Dawley rats
Protocol: The samples were analyzed in two batches with standards and QCs prepared on rat plasma and rat urine. Analyst® 1.6 (SCIEX) software was used for statistical analysis of bioanalytical data. […] Dose samples collected at 0.083 h-6 h postdose were diluted 4 times with SD rat plasma prior to plating. Twenty-four (24) hours plasma samples were assayed without dilution. […] Two sciatic nerve samples were excluded from analysis, due to the insufficient sample size. […] The 12 non-cannulated animals were arbitrarily assigned to groups upon arrival and housed together throughout the experiment. The animals were acclimated to their designated housing for at least 24 hours before the first day of dosing. […] Blood samples were collected via cannula from IV dosed rats or by cardiac stick from PO dosed rats at the specified time points for sampling pharmacokinetics. Blood was collected into K2EDTA tubes. Tubes were mixed gently after blood collection, chilled and centrifuged at 3000 rpm, 4° C. within 30 minutes upon collection. The samples were centrifuged at 4° C. and the resultant plasma separated. […] Urine from Group 1 was collected via polycarbonate tubes from rats placed in drug metabolism cages. Urine was maintained and room temperature through the collection period.

[1] = PTG-4997 in kidneys after PTG-630 PO

Cc1ncc(CO)c(-c2ncc[nH]2)c1O [PTG-4997]
MRT [1]: 11.6 h
Tmax [1]: 6 h
half-life [1]: 2.36 h
PTG-4997 (metabolite) concentration (Table 2, for PTG-4997 (metabolite) after PTG-630 IV 5 mg/kg, plasma, 0.083 h postdose, individual animals): <BLQ
PTG-4997 (metabolite) concentration (Table 2, for PTG-4997 (metabolite) after PTG-630 IV 5 mg/kg, plasma, 0.5 h postdose, individual animals, 5 mg/kg): <BLQ
PTG-4997 (metabolite) concentration (Table 2, for PTG-4997 (metabolite) after PTG-630 IV 5 mg/kg, plasma, 1 h postdose, individual animals): <BLQ
PTG-4997 (metabolite) concentration (Table 2, for PTG-4997 (metabolite) after PTG-630 IV 5 mg/kg, plasma, 24 h postdose, individual animals): <BLQ
PTG-4997 (metabolite) concentration (Table 2, for PTG-4997 (metabolite) after PTG-630 PO 100 mg/kg, brain, 0.5 h postdose, Mean): <BLQ
PTG-4997 (metabolite) concentration (Table 2, for PTG-4997 (metabolite) after PTG-630 PO 100 mg/kg, brain, 0.5 h postdose, individual animals): <BLQ
PTG-4997 (metabolite) concentration (Table 2, for PTG-4997 (metabolite) after PTG-630 PO 100 mg/kg, brain, 1 h postdose, Mean): <BLQ
PTG-4997 (metabolite) concentration (Table 2, for PTG-4997 (metabolite) after PTG-630 PO 100 mg/kg, brain, 1 h postdose, individual animals): <BLQ
PTG-4997 (metabolite) concentration (Table 2, for PTG-4997 (metabolite) after PTG-630 PO 100 mg/kg, brain, 2 h postdose, Mean): <BLQ
PTG-4997 (metabolite) concentration (Table 2, for PTG-4997 (metabolite) after PTG-630 PO 100 mg/kg, brain, 2 h postdose, individual animals): <BLQ
PTG-4997 (metabolite) concentration (Table 2, for PTG-4997 (metabolite) after PTG-630 PO 100 mg/kg, brain, 4 h postdose, Mean): <BLQ
PTG-4997 (metabolite) concentration (Table 2, for PTG-4997 (metabolite) after PTG-630 PO 100 mg/kg, brain, 4 h postdose, individual animals): <BLQ
PTG-4997 (metabolite) concentration (Table 2, for PTG-4997 (metabolite) after PTG-630 PO 100 mg/kg, brain, 6 h postdose, Mean): <BLQ
PTG-4997 (metabolite) concentration (Table 2, for PTG-4997 (metabolite) after PTG-630 PO 100 mg/kg, brain, 6 h postdose, individual animals): <BLQ
PTG-4997 (metabolite) concentration (Table 2, for PTG-4997 (metabolite) after PTG-630 PO 100 mg/kg, brain, 24 h postdose, Mean): <BLQ
PTG-4997 (metabolite) concentration (Table 2, for PTG-4997 (metabolite) after PTG-630 PO 100 mg/kg, brain, 24 h postdose, individual animals): <BLQ
PTG-4997 (metabolite) concentration (Table 2, for PTG-4997 (metabolite) after PTG-630 PO 100 mg/kg, kidney, 0.5 h postdose, Mean): 86.5 ng/mL
PTG-4997 (metabolite) concentration (Table 2, for PTG-4997 (metabolite) after PTG-630 PO 100 mg/kg, kidney, 1 h postdose, Mean): 0 ng/mL
PTG-4997 (metabolite) concentration (Table 2, for PTG-4997 (metabolite) after PTG-630 PO 100 mg/kg, kidney, 2 h postdose, Mean): 81 ng/mL
PTG-4997 (metabolite) concentration (Table 2, for PTG-4997 (metabolite) after PTG-630 PO 100 mg/kg, kidney, 4 h postdose, Mean): 128 ng/mL
PTG-4997 (metabolite) concentration (Table 2, for PTG-4997 (metabolite) after PTG-630 PO 100 mg/kg, kidney, 6 h postdose, Mean): 182.5 ng/mL
PTG-4997 (metabolite) concentration (Table 2, for PTG-4997 (metabolite) after PTG-630 PO 100 mg/kg, kidney, 24 h postdose, Mean): 106 ng/mL
PTG-4997 (metabolite) concentration (Table 2, for PTG-4997 (metabolite) after PTG-630 PO 100 mg/kg, liver, 0.5 h postdose, Mean): <BLQ
PTG-4997 (metabolite) concentration (Table 2, for PTG-4997 (metabolite) after PTG-630 PO 100 mg/kg, liver, 0.5 h postdose, individual animals): <BLQ
PTG-4997 (metabolite) concentration (Table 2, for PTG-4997 (metabolite) after PTG-630 PO 100 mg/kg, liver, 1 h postdose, Mean): <BLQ
PTG-4997 (metabolite) concentration (Table 2, for PTG-4997 (metabolite) after PTG-630 PO 100 mg/kg, liver, 1 h postdose, individual animals): <BLQ
PTG-4997 (metabolite) concentration (Table 2, for PTG-4997 (metabolite) after PTG-630 PO 100 mg/kg, liver, 2 h postdose, Mean): <BLQ
PTG-4997 (metabolite) concentration (Table 2, for PTG-4997 (metabolite) after PTG-630 PO 100 mg/kg, liver, 2 h postdose, individual animals): <BLQ
PTG-4997 (metabolite) concentration (Table 2, for PTG-4997 (metabolite) after PTG-630 PO 100 mg/kg, liver, 4 h postdose, Mean): <BLQ
PTG-4997 (metabolite) concentration (Table 2, for PTG-4997 (metabolite) after PTG-630 PO 100 mg/kg, liver, 4 h postdose, individual animals): <BLQ
PTG-4997 (metabolite) concentration (Table 2, for PTG-4997 (metabolite) after PTG-630 PO 100 mg/kg, liver, 6 h postdose, Mean): <BLQ
PTG-4997 (metabolite) concentration (Table 2, for PTG-4997 (metabolite) after PTG-630 PO 100 mg/kg, liver, 6 h postdose, individual animals): <BLQ
PTG-4997 (metabolite) concentration (Table 2, for PTG-4997 (metabolite) after PTG-630 PO 100 mg/kg, liver, 24 h postdose, Mean): <BLQ
PTG-4997 (metabolite) concentration (Table 2, for PTG-4997 (metabolite) after PTG-630 PO 100 mg/kg, liver, 24 h postdose, individual animals): <BLQ
PTG-4997 (metabolite) concentration (Table 2, for PTG-4997 (metabolite) after PTG-630 PO 100 mg/kg, muscle, 0.5 h postdose, Mean): <BLQ
PTG-4997 (metabolite) concentration (Table 2, for PTG-4997 (metabolite) after PTG-630 PO 100 mg/kg, muscle, 0.5 h postdose, individual animals): <BLQ
PTG-4997 (metabolite) concentration (Table 2, for PTG-4997 (metabolite) after PTG-630 PO 100 mg/kg, muscle, 1 h postdose, Mean): <BLQ
PTG-4997 (metabolite) concentration (Table 2, for PTG-4997 (metabolite) after PTG-630 PO 100 mg/kg, muscle, 1 h postdose, individual animals): <BLQ
